{"source": "paper PMC10115881", "about": "“Disrupting the α-synuclein-ESCRT interaction with a peptide inhibitor mitigates neurodegeneration in preclinical models of Parkinson’s disease” (Nature Communications, 2023)", "key": {"A53T a-syn or EV rats": {"tested_on": "A53T a-syn or EV rats", "assay": "AAV-A53T a-syn rat model, low titer", "assay_type": "in vivo", "from_the_text": "Third, we used a preclinical rat model of PD in which SN degeneration is induced by AAV vector-mediated expression of human mutant A53T a-syn[18],[45]–[48] (Fig. 5A). […] (Fig. 5B, C). […] Furthermore, overexpression of A53T a-syn was associated with a reduction in LAMP1 positive puncta in the SN which was restored with PDpep1.3 (Figs. 5E, S5E). […] Forelimb asymmetry in the cylinder test is a behavioral impairment associated with SN degeneration which models bradykinesia, the cardinal motor abnormality in PD[49].\n(§1) Adult female Sprague-Dawley rats (250–280 g; Envigo) were pair-housed in cages with wood bedding and had access to food and water ad libitum. The animal colony was maintained in a regular 12 h light/dark cycle. All procedures were approved by the University Health Network Animal Care Committee in accordance with guidelines and regulations set by the Canadian Council on Animal Care (AUP #3818).\nAnimals were secured in a stereotactic frame under isoflurane/oxygen anesthesia and ketoprofen (5 mg/kg) analgesia. The surgical site was shaved and sterilized with iodine/betadine prior to making a 2 cm incision along the midline. The scalp was exposed and a unilateral injection targeting the SN was performed at coordinates AP −5.2 mm, ML −2 mm and DV −7.5 mm with respect to the bregma as a point of reference. […]\nImmunofluorescence staining for a-syn, pS129 a-syn, TH, and LAMP1 was performed by washing free-floating sections with PBS-T (0.1% Tween-20 or 0.2% Triton-X-100) three times for 10 min each at room temperature. […] Sections were then mounted onto glass slides and allowed to dry and then Dako fluorescence mounting medium (Agilent) was applied, followed by coverslips.\nConfocal images of immunofluorescent staining of midbrain sections were processed using HALO software (Indica Labs), which is a well validated tool for automatic quantification of neurons in brain tissue sections[70]–[72]. […] Levels of total a-syn were assessed in this ROI by measuring the area and intensity of anti-a-syn staining. […]"}, "V1S/SV2 a-syn rats": {"tested_on": "V1S/SV2 a-syn rats", "assay": "AAV-V1S/SV2 a-syn oligomer rat model", "assay_type": "in vivo", "experimental": "as §1\nAnimals were secured in a stereotactic frame under isoflurane/oxygen anesthesia and ketoprofen (5 mg/kg) analgesia. The surgical site was shaved and sterilized with iodine/betadine prior to making a 2 cm incision along the midline. The scalp was exposed and a unilateral injection targeting the SN was performed at coordinates AP −5.2 mm, ML −2 mm and DV −7.5 mm with respect to the bregma as a point of reference. For each animal, a total volume of 2 μl of virus was injected at a rate of 0.5 μl/min using a microinjection pump and 10 μl Hamilton syringe with a 26-gauge needle. […] At the end of virus injection, the needle remained in place for 5 min before gradual removal.\nSections were then incubated in blocking solution (1% or 2% BSA, 10% normal goat serum in PBS-T) for 1 h. After blocking, sections were incubated with primary antibodies in antibody solution (2% normal goat serum in PBS-T) overnight at RT. Sections were then washed in PBS or PBS-T and incubated with secondary antibodies diluted in antibody solution for 1 h in the dark at room temperature. Sections were then mounted onto glass slides and allowed to dry and then Dako fluorescence mounting medium (Agilent) was applied, followed by coverslips.\nConfocal images of immunofluorescent staining were acquired with a Zeiss LSM880 confocal microscope equipped with 405, 488, 555, and 639 nm laser lines. All images were taken within the linear range at constant gain and pinhole settings at optimal resolution settings determined by the software. For primary cortical neurons and iPSC-derived dopaminergic neurons, the software was programmed to acquire an image every 1 μm for a total of 11 μm, capturing all of the neurons visible in the z-plane in each field of view using a ×63 objective. At least 30 images were acquired for each treatment group from three independent experiments. For animal experiments, the whole midbrain or striatum regions were imaged using a ×5 or ×10 objective. Ten serial coronal midbrain sections were imaged per animal, separated by 240 μm intervals. […]\nConfocal images of immunofluorescent staining of midbrain sections were processed using HALO software (Indica Labs), which is a well validated tool for automatic quantification of neurons in brain tissue sections[70]–[72]. […] Fluorescent intensity and area were then assessed in this ROI."}}, "note": "Values joined by “and” are separate entries in the source; they are usually repeats but may differ in a detail not shown here. Equal entries are not always repeated."}
{"sequence": "DEEIERQLKALG [PDpep1.3]", "values": [{"measurement": "Effect on LAMP1 positive puncta in SN", "setting": "A53T a-syn or EV rats", "value": "restored"}, {"measurement": "Effect on total a-syn positive area in SN", "setting": "A53T a-syn or EV rats", "value": "significant reduction in total a-syn positive area in the SN"}, {"measurement": "a-syn mean fluorescence intensity in TH+ and GFP+ SN cells", "setting": "A53T a-syn or EV rats; n = 5–7 rats/group", "value": "0.335 ± 0.025", "unit": "RFU"}, {"measurement": "Effect on a-syn oligomer levels, YFP positive area", "setting": "V1S/SV2 a-syn rats; 6 weeks post-injection, SN", "value": "significant reduction in a-syn oligomer levels"}, {"measurement": "TH fluorescence in striatum", "setting": "V1S/SV2 a-syn rats; V1S/SV2, 6 weeks, individual rats", "value": "0.2276 and 0.1447 and 0.1385 and 0.1997 and 0.2935 and 0.176 and 0.1626 and 0.2047 and 0.2584 and 0.2974"}, {"measurement": "YFP mean fluorescence intensity in TH+ and RFP+ SN cells", "setting": "V1S/SV2 a-syn rats; V1S/SV2, 6 weeks, n = 8–9 rats/group", "value": "0.063 ± 0.0167", "unit": "RFU"}, {"measurement": "Effect on pS129 a-syn in striatum", "setting": "V1S/SV2 a-syn rats; V1S/SV2 rats", "value": "reduced pS129 a-syn accumulation in the striatum"}]}
